The results in this text go back to patent US20090143285A1, “TARGET PROTEIN AND TARGET GENE FOR DRUG DISCOVERY AND SCREENING METHOD” (REVERSE PROTEOMICS RESEARCH INSTITUTE CO., LTD., priority 2005, published 2009).

Assay [1] has as its system FLJXXXXX-derived proteins. Kind of assay: SEC/MS spin column interaction analysis of FLJXXXXX-derived proteins and various compounds (Tables 30-1 to 30-4). Type of assay: binding, human.
The target in the next assay is T1, FLJ39553-derived protein (Homo sapiens, UniProt Q6P6B1, N326S).
T1 construct: His-tag (N); made in house; host or cells: Escherichia coli BL21star(DE3)pLysS
T1 sequence (Q6P6B1 1-374 N326S): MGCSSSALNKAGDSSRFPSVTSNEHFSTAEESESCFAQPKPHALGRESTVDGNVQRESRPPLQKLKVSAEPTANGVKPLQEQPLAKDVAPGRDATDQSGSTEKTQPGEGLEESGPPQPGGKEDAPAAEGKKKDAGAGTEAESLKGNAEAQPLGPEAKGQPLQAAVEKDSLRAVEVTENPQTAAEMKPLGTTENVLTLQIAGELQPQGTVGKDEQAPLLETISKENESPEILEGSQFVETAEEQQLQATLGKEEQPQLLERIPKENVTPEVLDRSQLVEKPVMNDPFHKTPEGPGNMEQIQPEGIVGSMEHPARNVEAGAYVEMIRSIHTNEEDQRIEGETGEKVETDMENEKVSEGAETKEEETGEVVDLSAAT
Kind of assay: SEC/MS interaction analysis, FLJ39553-derived protein (hypothetical protein FLJ39553). To be noted: TSKgel super SW2000 micro-LC column (1.0 mm ID×30 mm); presence vs absence of protein; data not shown. Type of assay: binding. From the text: (§1) To analyze the interactions between commonly used drugs and proteins expressed from human full-length cDNA clones while keeping both the proteins and the compounds in non-modified, non-immobilized state, size exclusion chromatography (SEC) and mass analysis were used in combination. The specific procedures are shown below.
(§2) The compound-protein mixture prepared in step 1 was subjected to chromatography using an SEC column, the compound and the protein were separated by SEC, and the compound that interacted with the bound compound or protein contained in the protein fraction was analyzed using a mass analyzer.
(§3) Protein concentrations were measured using BCA Protein Assay (PIERCE), in consideration of the purity calculated by SDS-PAGE.
Mass analysis was performed using LCQ DECA XP (Thermoelectron) or Q-TOF micro (Micromass), equipped with an ESI probe. […]
In the 384-well spin column method, Unifilter 100 (Whatman), packed with 10 μL (dry volume) of Bio-Gel P6 (BIO-RAD) and swollen with milliQ water, was used as the SEC column. […] 2-μL of mass analysis samples were injected using an autosampler at 2-minute intervals; the mass spectral intensity of the compound was measured to retrieve the spectral intensity of the pharmaceutical compound contained in the SEC spin column filtrate (protein fraction eluted from SEC).

The next assay has as its target T2, FLJ35914-derived protein (Homo sapiens, UniProt Q9HB65, DEL362-362).
T2 construct: His-tag (N); made in house; host or cells: Escherichia coli BL21star(DE3)pLysS
T2 sequence (Q9HB65 with tags, fused parts or gaps DEL362-362): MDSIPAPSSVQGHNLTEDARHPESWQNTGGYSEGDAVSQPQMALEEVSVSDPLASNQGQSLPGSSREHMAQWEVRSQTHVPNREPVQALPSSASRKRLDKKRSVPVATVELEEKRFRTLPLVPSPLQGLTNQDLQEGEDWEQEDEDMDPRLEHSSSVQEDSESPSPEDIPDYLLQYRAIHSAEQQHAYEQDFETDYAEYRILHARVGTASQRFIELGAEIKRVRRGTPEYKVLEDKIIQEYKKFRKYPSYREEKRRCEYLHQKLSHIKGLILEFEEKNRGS
Kind of assay: SEC/MS interaction analysis, FLJ35914-derived protein (ELL3). Type of assay: binding. The conditions noted are these: TSKgel super SW2000 micro-LC column (1.0 mm ID×30 mm); presence vs absence of protein; data not shown. From the text:
(§4) The specific procedures are shown below.

The target of the next assay is T3, FLJ36526-derived protein (Homo sapiens, UniProt Q9UNZ2, D290N/L361F).
T3 construct: His-tag (N); made in house; host or cells: Escherichia coli BL21star(DE3)pLysS
T3 sequence (Q9UNZ2 1-370 D290N/L361F): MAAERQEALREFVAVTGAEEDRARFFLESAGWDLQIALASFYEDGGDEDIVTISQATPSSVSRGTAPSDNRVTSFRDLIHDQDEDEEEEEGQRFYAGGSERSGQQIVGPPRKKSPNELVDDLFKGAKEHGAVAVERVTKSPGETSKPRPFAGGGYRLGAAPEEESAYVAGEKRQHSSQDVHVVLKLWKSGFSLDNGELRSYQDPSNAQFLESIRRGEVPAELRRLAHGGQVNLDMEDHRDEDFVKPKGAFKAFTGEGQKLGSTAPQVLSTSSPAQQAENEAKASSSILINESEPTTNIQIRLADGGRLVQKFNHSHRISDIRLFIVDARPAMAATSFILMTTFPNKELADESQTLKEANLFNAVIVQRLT
Put plainly: SEC/MS interaction analysis, FLJ36526-derived protein (NSFL1 (p97) cofactor (p47)). The assay is classed as binding. To be noted: TSKgel super SW2000 micro-LC column (1.0 mm ID×30 mm); presence vs absence of protein; data not shown.
Source text: as §4

The target in assay [2] is T4, FLJ38531-derived protein (Homo sapiens, UniProt Q9BVM4).
T4 construct: His-tag (N); made in house; host or cells: Escherichia coli BL21star(DE3)pLysS
T4 sequence (Q9BVM4 1-153): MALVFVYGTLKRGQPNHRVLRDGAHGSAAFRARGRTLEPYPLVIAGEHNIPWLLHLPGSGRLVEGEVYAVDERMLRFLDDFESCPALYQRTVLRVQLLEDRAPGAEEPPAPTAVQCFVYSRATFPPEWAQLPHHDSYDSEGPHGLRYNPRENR
Put plainly: SEC/MS interaction analysis, FLJ38531-derived protein (hypothetical protein BC004360). The assay is classed as binding.
Source text: as §1, §2, §3
Mass analysis was performed using LCQ DECA XP (Thermoelectron) or Q-TOF micro (Micromass), equipped with an ESI probe. The LC pump used was Agilent 1100 (Yokogawa Analytical Systems), and the autosampler used was HTC-PAL (CTC Analytics) equipped with a cooling stacker. The SEC column used was a micro-LC column or a 384-well spin column. […]
In the 384-well spin column method, Unifilter 100 (Whatman), packed with 10 μL (dry volume) of Bio-Gel P6 (BIO-RAD) and swollen with milliQ water, was used as the SEC column. […] The SEC spin column was mounted on an acetonitrile-aliquoted 384-well U-bottom plate and centrifuged; the SEC spin column filtrate, which is a protein fraction, was recovered in 50% acetonitrile. The protein precipitate produced by the acetonitrile was removed via centrifugation and filtration for deproteinization; the resulting filtrate was concentrated by centrifugal concentration and re-dissolved in 10 μL of 50% methanol to obtain a mass analysis sample. The mobile phase supplied to the mass analyzer was 0.1% formic acid/50% methanol solution in the positive ion mode, and 0.1% ammonia/50% methanol solution in the negative ion mode; these mobile phases were used at a flow rate of 40 μL/min. 2-μL of mass analysis samples were injected using an autosampler at 2-minute intervals; the mass spectral intensity of the compound was measured to retrieve the spectral intensity of the pharmaceutical compound contained in the SEC spin column filtrate (protein fraction eluted from SEC).

In assay [3] the target is T4, FLJ38531-derived protein. Put plainly: Biacore dissociation constant (KD) measurement, FLJ38531-derived protein. The assay is classed as binding. To be noted: FLJ38531-derived protein (SEQ ID NO 13). The text has this:
This washing operation was repeated as required.
For orientation: In SPR one partner is held on a chip, and binding of the other changes the refractive index at the surface.

Entries after “also recorded” stand apart in the source; their conditions may differ. Like-named read-outs stand apart in the source and are kept apart here.

As for `C/C1=C2N=C(/C=C3N=C(/C(C)=C4\[N-][C@@](C)([C@@H]5N=C1[C@](C)(CCC(=O)NC[C@@H](C)OP(=O)([O-])O[C@H]1[C@@H](O)[C@@H](n6cnc7cc(C)c(C)cc76)O[C@@H]1CO)[C@H]5CC(N)=O)[C@@](C)(CC(N)=O)[C@@H]4CCC(N)=O)[C@@](C)(CC(N)=O)[C@@H]\3CCC(N)=O)C(C)(C)[C@@H]/2CCC(N)=O.[Co+3].[OH-]` [hydroxocobalamin], the “FLJ No of the derived protein with which the compound was judged to exhibit a concentration-dependent interaction” value in assay [1] is listed as “FLJ35914; also recorded: FLJ36526; also recorded: FLJ39553”. Further, the “interaction judged from mass chromatogram of the compound (elution from SEC micro-LC column)” value at FLJ39553-derived protein, on FLJ35914-derived protein and on FLJ36526-derived protein was “there was an interaction” in each case.
One may read the Kd as the free concentration of one partner at which half of the binding sites on the other are occupied at equilibrium, for simple one-to-one binding. In the case of `O=C(O)c1cc(/N=N/c2ccc(S(=O)(=O)Nc3ccccn3)cc2)ccc1O` [sulfasalazine], the “FLJ No of the derived protein with which the compound was judged to exhibit a concentration-dependent interaction” value in assay [1] (SEC spin column filtrate, spectral intensity increased with doses of compound and protein) is reported as “FLJ38531”. Further, the “spectrum intensity of the compound in the SEC spin column filtrate” value at FLJ38531-derived protein [2] (compound 12.5 μM, protein 0 μM) is reported as 59203; on FLJ38531-derived protein [2] (compound 12.5 μM, protein 5 μM), 261679; on FLJ38531-derived protein [2] (compound 12.5 μM, protein 10 μM) it was 686531; at FLJ38531-derived protein [2] (compound 12.5 μM, protein 25 μM) it was 2048630; on FLJ38531-derived protein [2] (compound 25 μM, protein 0 μM) it was 53384; at FLJ38531-derived protein [2] (compound 25 μM, protein 5 μM) it was 401351. Moreover, the “spectrum intensity of the compound in the SEC spin column filtrate” value on FLJ38531-derived protein [2] (compound 25 μM, protein 10 μM) came to 946518; on FLJ38531-derived protein [2] (compound 25 μM, protein 25 μM), 2600573; at FLJ38531-derived protein [2] (compound 62.5 μM, protein 0 μM) it was 179387; on FLJ38531-derived protein [2] (compound 62.5 μM, protein 5 μM) it was 688076; at FLJ38531-derived protein [2] (compound 62.5 μM, protein 10 μM), 1418687; on FLJ38531-derived protein [2] (compound 62.5 μM, protein 25 μM) it was 3155516. Further, on FLJ38531-derived protein [2] (spin column method, doses of both compound and protein varied), the “interaction judged from spectrum intensity of the compound in the SEC spin column filtrate (protein fraction eluted from SEC)” value is given as “concentration-dependent interaction”. Also, the Kd on FLJ38531-derived protein [3] was determined as 8.9 µM.
